ChEMBL document CHEMBL4304823, “Photo-induced synthesis of Axinastatin 3 analogs, the secondary structures and their in vitro antitumor activities” (Bioorg Med Chem Lett, 2019)
≈ marks a conversion by molar mass, not a printed value. Calls of active or inactive are those of the source. The calls are words filed in the database; no cut-off is given here.

How the values were obtained:
HeLa = assay: Antitumour activity against human HeLa cells assessed as reduction in cell viability by MTT assay; assay type: functional, cell-based
HepG2 [1] = assay: Antitumour activity against human HepG2 cells assessed as reduction in cell viability incubated for 48 hrs by MTT assay; assay type: functional, cell-based; details: HepG2, 48 h
L929 = assay: Cytotoxicity against mouse L929 cells assessed as reduction in cell viability measured after 48 hrs; assay type: cell-based; details: for IC50: Mus musculus, L929, 48 h; for Activity: mouse, l929, 48 h
HepG2 [2] = assay: Induction of cell morphological changes in human HepG2 cells assessed as change in normal spindle cell shape to rounder cells with weak adhesion ability at 40 uM measured after 0 to 48 hrs by fluorescence inversion microscopy analysis; assay type: functional, cell-based
HepG2 [3] = assay: Induction of cell morphological changes in human HepG2 cells assessed as decrease in cell number at 40 uM measured after 0 to 48 hrs by fluorescence inversion microscopy analysis; assay type: functional, cell-based
HepG2 [4] = assay: Induction of cell death in human HepG2 cells at 40 uM measured after 48 hrs by fluorescence inversion microscopy analysis; assay type: functional, cell-based

Row | Compound | IC50 (HeLa) | IC50 (HepG2 [1]) | IC50 (L929) | Activity (HepG2 [2]) | Activity (HepG2 [3]) | Activity (HepG2 [4]) | Activity (L929)
1 | CC(=O)O[C@H]1C(=O)[C@@]2(C)[C@H]([C@H](OC(=O)c3ccccc3)[C@]3(O)C[C@H](OC(=O)[C@H](O)[C@@H](NC(=O)c4ccccc4)c4ccccc4)C(C)=C1C3(C)C)[C@]1(OC(C)=O)CO[C@@H]1C[C@@H]2O [PACLITAXEL] | > 400 mg/L | 102 mg/L (≈ 119 µM) | 33 mg/L (≈ 38.6 µM) | – | – | – | –
2 | CC[C@H](C)[C@@H]1NC(=O)CN2C(=O)c3ccccc3[C@@]2(O)CN(Cc2ccccc2)C(=O)[C@H]2CCCN2C(=O)[C@H](C(C)C)NC(=O)[C@H]2CCCN2C(=O)[C@H](CC(C)C)NC1=O | – | – | – | Active | Active | Active | –
3 | CCNC(=O)CC[C@@H]1NC(=O)CN2C(=O)c3ccccc3[C@@]2(O)CN(Cc2ccccc2)C(=O)[C@H]2CCCN2C(=O)[C@H](C(C)C)NC(=O)[C@H]2CCCN2C(=O)[C@H](CC(C)C)NC(=O)[C@H]([C@@H](C)CC)NC1=O | 280 mg/L (≈ 285 µM) | 64.5 mg/L (≈ 65.6 µM) | 61.1 mg/L (≈ 62 µM) | – | – | – | Dose-dependent effect

Now from value to compound, other results behind:

Row | IC50 (HeLa) | IC50 (HepG2 [1]) | Compound | IC50 (L929) | Activity (HepG2 [2]) | Activity (HepG2 [3]) | Activity (HepG2 [4]) | Activity (L929)
4 | 89 mg/L (≈ 107 µM) | 72.6 mg/L (≈ 87.6 µM) | CC[C@H](C)[C@@H]1NC(=O)CN2C(=O)c3ccccc3[C@]2(O)CN(Cc2ccccc2)C(=O)[C@@H]2CCCN2C(=O)[C@H](C(C)C)NC(=O)[C@@H]2CCCN2C(=O)[C@H](CC(C)C)NC1=O | 86.2 mg/L (≈ 104 µM) | – | – | – | Dose-dependent effect
5 | 41.2 mg/L (≈ 49.7 µM) | 38.4 mg/L (≈ 46.4 µM) | CC[C@H](C)[C@@H]1NC(=O)CN2C(=O)c3ccccc3[C@@]2(O)CN(Cc2ccccc2)C(=O)[C@@H]2CCCN2C(=O)[C@H](C(C)C)NC(=O)[C@@H]2CCCN2C(=O)[C@H](CC(C)C)NC1=O | 50.5 mg/L (≈ 61 µM) | – | – | – | Dose-dependent effect
